# US20250262214A1, “INTERMITTENT DOSING REGIMEN FOR AZENOSERTIB IN TREATING CANCER” (Zeno Management, Inc., priority 2022, published 2025)
# Tested on: MDA-MB-468 triple negative breast cancer tumor model
# Assay: MDA-MB-468 triple negative breast cancer tumor model, tumor growth inhibition
# Type: in vivo
# Settings: niraparib single agent, 50 mg/kg
# Method: In vivo exploration of dose and schedule of Azenosertib and PARPi (niraparib, talazoparib) including exploration of alternating dosing was evaluated.
structure (smiles),measurement,value
"NC(=O)c1cccc2cn(-c3ccc([C@@H]4CCCNC4)cc3)nc12 [niraparib, reference compound]",tumor growth inhibition (TGI),47.7%
